Source: PubChem BioAssay (NCI)
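Growth conditions: 96-well plates. Treatment: test compound, 48 hours, 5 concentrations. Analysis: linear interpolation between bracketing concentrations; unreached endpoints set to highest concentration. Here, GI50 denotes the concentration required for 50% inhibition of growth. TGI denotes the concentration required for complete inhibition of growth.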

How the values were obtained:
Experiment in all cases: growth of human tumour cells (NCI), 48 h
SK-MEL-5 melanoma = system: SK-MEL-5 melanoma
COLO 205 colon = system: COLO 205 colon
HCT-116 colon = system: HCT-116 colon
NCI-H226 lung = system: NCI-H226 lung
SNB-75 CNS = system: SNB-75 CNS
RPMI-8226 leukemia = system: RPMI-8226 leukemia
786-0 renal = system: 786-0 renal
MDA-MB-231 breast = system: MDA-MB-231 breast
CAKI-1 renal = system: CAKI-1 renal
UACC-257 melanoma = system: UACC-257 melanoma
PC-3 prostate = system: PC-3 prostate
SK-MEL-2 melanoma = system: SK-MEL-2 melanoma
KM12 colon = system: KM12 colon
A498 renal = system: A498 renal
SK-MEL-28 melanoma = system: SK-MEL-28 melanoma
SN12C renal = system: SN12C renal
HT29 colon = system: HT29 colon
OVCAR-3 ovarian = system: OVCAR-3 ovarian
UO-31 renal = system: UO-31 renal
OVCAR-4 ovarian = system: OVCAR-4 ovarian
TK-10 renal = system: TK-10 renal
NCI/ADR-RES ovarian = system: NCI/ADR-RES ovarian
LOX IMVI melanoma = system: LOX IMVI melanoma
EKVX NSCLC = system: EKVX NSCLC
OVCAR-8 ovarian = system: OVCAR-8 ovarian
OVCAR-5 ovarian = system: OVCAR-5 ovarian
SW-620 colon = system: SW-620 colon
RXF 393 renal = system: RXF 393 renal
NCI-H460 lung = system: NCI-H460 lung
HCT-15 colon = system: HCT-15 colon
UACC-62 melanoma = system: UACC-62 melanoma
SR leukemia = system: SR leukemia
MOLT-4 leukemia = system: MOLT-4 leukemia
SNB-19 CNS = system: SNB-19 CNS
U251 CNS = system: U251 CNS
HL-60(TB) leukemia = system: HL-60(TB) leukemia
SF-295 CNS = system: SF-295 CNS
ACHN renal = system: ACHN renal
IGROV1 ovarian = system: IGROV1 ovarian
NCI-H23 lung = system: NCI-H23 lung
BT-549 breast = system: BT-549 breast
HS 578T breast = system: HS 578T breast
HOP-92 NSCLC = system: HOP-92 NSCLC
SF-539 CNS = system: SF-539 CNS
MALME-3M melanoma = system: MALME-3M melanoma
A549 NSCLC = system: A549 NSCLC
HCC-2998 colon = system: HCC-2998 colon
DU-145 prostate = system: DU-145 prostate
HOP-62 NSCLC = system: HOP-62 NSCLC
MCF7 breast = system: MCF7 breast
K-562 leukemia = system: K-562 leukemia
M14 melanoma = system: M14 melanoma
SK-OV-3 ovarian = system: SK-OV-3 ovarian
T-47D breast = system: T-47D breast
NCI-H522 lung = system: NCI-H522 lung
MDA-MB-435 = system: MDA-MB-435
CCRF-CEM leukemia = system: CCRF-CEM leukemia
SF-268 CNS = system: SF-268 CNS

O=[N+]([O-])c1ccc2c(c1)C(=NO)c1cc([N+](=O)[O-])ccc1-2
GI50 (SK-MEL-5 melanoma): 12.1 µM
TGI (SK-MEL-5 melanoma): 34 µM
GI50 (COLO 205 colon): 39.5 µM
TGI (COLO 205 colon): > 100 µM
GI50 (HCT-116 colon): 6.71 µM
TGI (HCT-116 colon): > 100 µM
GI50 (NCI-H226 lung): 10.9 µM
TGI (NCI-H226 lung): 29.1 µM
GI50 (SNB-75 CNS): 7.18 µM
TGI (SNB-75 CNS): 75.8 µM
GI50 (RPMI-8226 leukemia): 29.4 µM
TGI (RPMI-8226 leukemia): > 100 µM
GI50 (786-0 renal): 10.8 µM
TGI (786-0 renal): > 100 µM
GI50 (MDA-MB-231 breast): 36.3 µM
TGI (MDA-MB-231 breast): > 100 µM
GI50 (CAKI-1 renal): 6.46 µM
TGI (CAKI-1 renal): > 100 µM
GI50 (UACC-257 melanoma): 62.6 µM
TGI (UACC-257 melanoma): > 100 µM
GI50 (PC-3 prostate): 24.2 µM
TGI (PC-3 prostate): > 100 µM
GI50 (SK-MEL-2 melanoma): > 100 µM
TGI (SK-MEL-2 melanoma): > 100 µM
GI50 (KM12 colon): 18.6 µM
TGI (KM12 colon): > 100 µM
GI50 (A498 renal): 54 µM
TGI (A498 renal): > 100 µM
GI50 (SK-MEL-28 melanoma): 43.4 µM
TGI (SK-MEL-28 melanoma): > 100 µM
GI50 (SN12C renal): 20.5 µM
TGI (SN12C renal): > 100 µM
GI50 (HT29 colon): 19.5 µM
TGI (HT29 colon): > 100 µM
GI50 (OVCAR-3 ovarian): 68.4 µM
TGI (OVCAR-3 ovarian): > 100 µM
GI50 (UO-31 renal): 3.12 µM
TGI (UO-31 renal): 23.5 µM
GI50 (OVCAR-4 ovarian): 12.7 µM
TGI (OVCAR-4 ovarian): > 100 µM
GI50 (TK-10 renal): 12.6 µM
TGI (TK-10 renal): > 100 µM
GI50 (NCI/ADR-RES ovarian): 16.3 µM
TGI (NCI/ADR-RES ovarian): > 100 µM
GI50 (LOX IMVI melanoma): 13.8 µM
TGI (LOX IMVI melanoma): > 100 µM
GI50 (EKVX NSCLC): 12.9 µM
TGI (EKVX NSCLC): > 100 µM
GI50 (OVCAR-8 ovarian): 74.7 µM
TGI (OVCAR-8 ovarian): > 100 µM
GI50 (OVCAR-5 ovarian): > 100 µM
TGI (OVCAR-5 ovarian): > 100 µM
GI50 (SW-620 colon): 12.4 µM
TGI (SW-620 colon): > 100 µM
GI50 (RXF 393 renal): > 100 µM
TGI (RXF 393 renal): > 100 µM
GI50 (NCI-H460 lung): 4.82 µM
TGI (NCI-H460 lung): > 100 µM
GI50 (HCT-15 colon): 8.92 µM
TGI (HCT-15 colon): > 100 µM
GI50 (UACC-62 melanoma): 11.5 µM
TGI (UACC-62 melanoma): > 100 µM
GI50 (SR leukemia): 2.88 µM
TGI (SR leukemia): 9.86 µM
GI50 (MOLT-4 leukemia): 3.25 µM
TGI (MOLT-4 leukemia): 7.61 µM
GI50 (SNB-19 CNS): > 100 µM
TGI (SNB-19 CNS): > 100 µM
GI50 (U251 CNS): 10.7 µM
TGI (U251 CNS): > 100 µM
GI50 (HL-60(TB) leukemia): 4.19 µM
TGI (HL-60(TB) leukemia): 22.9 µM
GI50 (SF-295 CNS): 13.5 µM
TGI (SF-295 CNS): > 100 µM
GI50 (ACHN renal): 4.98 µM
TGI (ACHN renal): 39.7 µM
GI50 (IGROV1 ovarian): 2.52 µM
TGI (IGROV1 ovarian): 7.6 µM
GI50 (NCI-H23 lung): 25.3 µM
TGI (NCI-H23 lung): > 100 µM
GI50 (BT-549 breast): 50.8 µM
TGI (BT-549 breast): > 100 µM
GI50 (HS 578T breast): > 100 µM
TGI (HS 578T breast): > 100 µM
GI50 (HOP-92 NSCLC): 53.7 µM
TGI (HOP-92 NSCLC): > 100 µM
GI50 (SF-539 CNS): 37.7 µM
TGI (SF-539 CNS): > 100 µM
GI50 (MALME-3M melanoma): 11.7 µM
TGI (MALME-3M melanoma): > 100 µM
GI50 (A549 NSCLC): 7.23 µM
TGI (A549 NSCLC): > 100 µM
GI50 (HCC-2998 colon): 37.1 µM
TGI (HCC-2998 colon): > 100 µM
GI50 (DU-145 prostate): 55.1 µM
TGI (DU-145 prostate): > 100 µM
GI50 (HOP-62 NSCLC): 46.5 µM
TGI (HOP-62 NSCLC): > 100 µM
GI50 (MCF7 breast): 4.92 µM
TGI (MCF7 breast): > 100 µM
GI50 (K-562 leukemia): 11.7 µM
TGI (K-562 leukemia): > 100 µM
GI50 (M14 melanoma): 21.5 µM
TGI (M14 melanoma): > 100 µM
GI50 (SK-OV-3 ovarian): > 100 µM
TGI (SK-OV-3 ovarian): > 100 µM
GI50 (T-47D breast): 79 µM
TGI (T-47D breast): > 100 µM
GI50 (NCI-H522 lung): 1.62 µM
TGI (NCI-H522 lung): 11 µM
GI50 (MDA-MB-435): 22.5 µM
TGI (MDA-MB-435): > 100 µM
GI50 (CCRF-CEM leukemia): 13.6 µM
TGI (CCRF-CEM leukemia): > 100 µM
GI50 (SF-268 CNS): 33.6 µM
TGI (SF-268 CNS): > 100 µM
